Source: patent publication US8740843B2, “Coated balloon catheter” (Cook Medical Technologies LLC, priority 2009, dated 2014)

Assay: Elution of paclitaxel from coated balloon catheter assemblies in porcine serum elution medium (HPLC)
Format: physicochemical
Settings: contrast media vs saline
Protocol: The rate of paclitaxel elution in each of the paclitaxel-coated balloon catheter assemblies described in Example 1 is analyzed in a porcine serum at 37° C. The coated balloon catheter assemblies are then divided into two groups, A and B. The coated balloon catheter assembly in Group A is designated to deliver a saline solution through the apertures of the outer balloon, while the coated balloon catheter assembly in Group B is designated to deliver a contrast media through the apertures of the outer balloon. The contrast media used is ISOVUE®-370 of Bracco Diagnostics (Princeton, N.J.), which included 370 mgl/mL of Iopamidol.
The coated balloon catheter assemblies, expanded to 4 ATM, is contacted with the porcine serum elution medium and continuously stirred for a desired period of time (e.g., at least one hour) selected to gradually dissolve the paclitaxel at a rate similar to dissolution in blood. […] The amount of the paclitaxel dissolved is measured as a function of time by monitoring with High Performance Liquid Chromatography (HPLC) the porcine serum elution medium after contact with the coated balloon catheter assembly. […] The outer balloon of each of the coated balloon catheter assemblies is then detached from the assembly and analyzed using HPCL to measure the amount of paclitaxel left on the coated outer balloon after being in contact with the elution medium for 60 minutes.

- lower amount of PTX on the outer balloon than Group A balloon catheters (after 60 minutes): ≤ 15%
- PTX elutes faster than Group A balloon catheters (time period of 2 to 10 minutes): 2-3 times
SMILES: CC(=O)O[C@H]1C(=O)[C@@]2(C)[C@H]([C@H](OC(=O)c3ccccc3)[C@]3(O)C[C@H](OC(=O)[C@H](O)[C@@H](NC(=O)c4ccccc4)c4ccccc4)C(C)=C1C3(C)C)[C@]1(OC(C)=O)CO[C@@H]1C[C@@H]2O [paclitaxel]
